Source: patent US10875876B2, “Cyclized sulfamoylarylamide derivatives and the use thereof as medicaments for the treatment of hepatitis B” (priority 2015, dated 2020)
Like-named read-outs stand apart in the source and are kept apart here.

Legend:
HBV = assay: anti HBV activity, HepG2.117 cell line, intracellular HBV DNA by realtime PCR; assay type: cell-based; conditions: HepG2.117 cell line (Tet-off), 3 days of treatment, intracellular HBV DNA quantified by realtime PCR, read-out: HBV-AVE-HepG2.117 EC50
Method in brief: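 Readout was intracellular HBV DNA by real-time PCR (HBV-specific primers and probe) after 3 days of compound exposure. Serial dilutions were tested in duplicate on HepG2.117 cells, a stable inducible HBV producer in which replication is switched on when doxycycline is absent.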

HepG2 cells = assay: Cytotoxicity in HepG2 cells, Resazurin assay; conditions: read-out: TOX-HepG2-4 d CC50; HepG2 cells incubated for 4 days, viability by Resazurin assay
[1] = Cytotoxicity in HepG2 cells, Resazurin assay; conditions: human, HepG2 cells, TOX-HepG2-4 d CC50 (μM), HepG2 cells incubated for 4 days, viability by Resazurin assay
[2] = Hepatitis B virus, HepG2.117, 72 h

| Structure (SMILES) | EC50 (HBV) | CC50 (HepG2 cells) | EC50 (HBV; [2]) | melting point | CC50 at 4 days [1] |
| --- | --- | --- | --- | --- | --- |
| CC1C=Cc2c(cn(C)c2C(=O)Nc2ccc(F)c(F)c2)S(=O)(=O)N1 (single isomer, unassigned) [Compound 7b, N-(3,4-difluorophenyl)-3,7-dimethyl-1,1-dioxo-2,3-dihydropyrrolo-[3,4-f]thiazepine-6-carboxamide] | 7 nM | > 25000 nM |  |  |  |
| CC1CCc2c(cn(C)c2C(=O)Nc2ccc(F)c(F)c2)S(=O)(=O)N1 (single isomer, unassigned) [Compound 10b, N-(3,4-difluorophenyl)-3,7-dimethyl-1,1-dioxo-2,3,4,5-tetrahydropyrrolo[3,4-f]thiazepine-6-carboxamide] | 6 nM | > 25000 nM |  |  |  |
| CC1COc2c(cn(C)c2C(=O)Nc2ccc(F)c(F)c2)S(=O)(=O)N1 (single isomer, unassigned) [Compound 14b, N-(3,4-difluorophenyl)-3,7-dimethyl-1,1-dioxo-3,4-dihydro-2H-pyrrolo-[3,4-b][1,4,5]oxathiazepine-6-carboxamide] | 78 nM | > 25000 nM |  |  |  |
| CC1C/C=C\c2c(cn(C)c2C(=O)Nc2ccc(F)c(F)c2)S(=O)(=O)N1 (single isomer, unassigned) [Compound 15b, (5Z)—N-(3,4-difluorophenyl)-3,8-dimethyl-1,1-dioxo-3,4-dihydro-2H-pyrrolo[3,4-g]thiazocine-7-carboxamide] | > 500 nM | > 25000 nM |  |  |  |
| Cn1cc2c(c1C(=O)Nc1ccnc(C(F)(F)F)c1)CCC(C(F)(F)F)NS2(=O)=O (single isomer, unassigned) [Compound 59b, 7-methyl-1,1-dioxo-3-(trifluoromethyl)-N-[2-(trifluoromethyl)-4-pyridyl]-2,3,4,5-tetrahydropyrrolo[3,4-f]thiazepine-6-carboxamide] | 140 nM | > 25000 nM |  |  |  |
| Cn1cc2c(c1C(=O)Nc1ccc(F)c(C#N)c1)CCC(C(F)(F)F)NS2(=O)=O (single isomer, unassigned) [Compound 60b, N-(3-cyano-4-fluoro-phenyl)-7-methyl-1,1-dioxo-3-(trifluoromethyl)-2,3,4,5-tetrahydropyrrolo[3,4-f]thiazepine-6-carboxamide] | 5 nM | > 25000 nM |  |  |  |
| CC(C)C1C=Cc2c(cn(C)c2C(=O)Nc2ccc(F)c(F)c2)S(=O)(=O)N1 (single isomer, unassigned) [Compound 79b, N-(3,4-difluorophenyl)-3-isopropyl-7-methyl-1,1-dioxo-2,3-dihydropyrrolo[3,4-f]thiazepine-6-carboxamide] | 2 nM | > 25000 nM |  |  |  |
| Cn1cc2c(c1C(=O)Nc1ccc(F)c(F)c1)OCC(C1CCOCC1)NS2(=O)=O (single isomer, unassigned) [Compound 89b, N-(3,4-difluorophenyl)-7-methyl-1,1-dioxo-3-tetrahydropyran-4-yl-3,4-dihydro-2H-pyrrolo[3,4-b][1,4,5]oxathiazepine-6-carboxamide] | 17 nM | > 25000 nM |  |  |  |
| Cn1cc2c(c1C(=O)Nc1ccc(F)c(F)c1)OC[C@@H](C(O)C1CC1)NS2(=O)=O (single isomer, unassigned) [Compound 92b] | 170 nM | > 25000 nM |  |  |  |
| CC(C)C(O)C1COc2c(cn(C)c2C(=O)Nc2ccc(F)c(F)c2)S(=O)(=O)N1 (single isomer, unassigned) [Compound 114b, N-(3,4-difluorophenyl)-3-(1-hydroxy-2-methyl-propyl)-7-methyl-1,1-dioxo-3,4-dihydro-2H-pyrrolo[3,4-b][1,4,5]oxathiazepine-6-carboxamide] | 8 nM | > 25000 nM |  |  |  |
| Cn1cc2c(c1C(=O)Nc1ccc(F)c(C#N)c1)CCC(C(C)(C)O)NS2(=O)=O (single isomer, unassigned) [Compound 116b, N-(3-cyano-4-fluoro-phenyl)-3-(1-hydroxy-1-methyl-ethyl)-7-methyl-1,1-dioxo-2,3,4,5-tetrahydropyrrolo[3,4-f]thiazepine-6-carboxamide] | > 350 nM | > 25000 nM |  |  |  |
| CCC1(C)COc2c(cn(C)c2C(=O)Nc2ccc(F)c(F)c2)S(=O)(=O)N1 (single isomer, unassigned) [Compound 134b, N-(3,4-difluorophenyl)-3-ethyl-3,7-dimethyl-1,1-dioxo-2,4-dihydropyrrolo[3,4-b][1,4,5]oxathiazepine-6-carboxamide] | 7 nM | > 25000 nM |  |  |  |
| CCC(O)[C@@H]1COc2c(cn(C)c2C(=O)Nc2ccc(F)c(C(F)F)c2)S(=O)(=O)N1 (single isomer, unassigned) [Compound 144b, N-[3-(difluoromethyl)-4-fluoro-phenyl]-3-(1-hydroxypropyl)-7-methyl-1,1-dioxo-3,4-dihydro-2H-pyrrolo[3,4-b][1,4,5]oxathiazepine-6-carboxamide] | 63 nM | > 25000 nM |  |  |  |
| Cn1cc2c(c1C(=O)Nc1ccc(F)c(F)c1)OCC(C)(c1cnccn1)NS2(=O)=O (single isomer, unassigned) [Compound 145b, N-(3,4-difluorophenyl)-3,7-dimethyl-1,1-dioxo-3-pyrazin-2-yl-2,4-dihydropyrrolo[3,4-b][1,4,5]oxathiazepine-6-carboxamide] | 60 nM | > 25000 nM |  |  |  |
| Cn1cc2c(c1C(=O)Nc1cc(F)c(F)c(F)c1)CCC(C(C)(C)O)NS2(=O)=O (single isomer, unassigned) [Compound 149b, 3-(1-hydroxy-1-methyl-ethyl)-7-methyl-1,1-dioxo-N-(3,4,5-trifluorophenyl)-2,3,4,5-tetrahydropyrrolo[3,4-f]thiazepine-6-carboxamide] | 10 nM | > 25000 nM |  |  |  |
| Cn1cc2c(c1C(=O)Nc1ccc(F)c(C(F)F)c1)CCC(C(C)(C)O)NS2(=O)=O (single isomer, unassigned) [Compound 150b, N-[3-(difluoromethyl)-4-fluoro-phenyl]-3-(1-hydroxy-1-methyl-ethyl)-7-methyl-1,1-dioxo-2,3,4,5-tetrahydropyrrolo[3,4-f]thiazepine-6-carboxamide] | 5 nM | > 25000 nM |  |  |  |
| Cn1cc2c(c1C(=O)Nc1ccc(F)c(F)c1)OCC(C)(c1ncccn1)NS2(=O)=O (single isomer, unassigned) [Compound 153b, N-(3,4-difluorophenyl)-3,7-dimethyl-1,1-dioxo-3-pyrimidin-2-yl-2,4-dihydropyrrolo[3,4-b][1,4,5]oxathiazepine-6-carboxamide] | 60 nM | > 25000 nM |  |  |  |
| Cn1cc2c(c1C(=O)Nc1ccc(F)c(F)c1)OCC(C)(c1ncco1)NS2(=O)=O (single isomer, unassigned) [Compound 160b, N-(3,4-difluorophenyl)-3,7-dimethyl-3-oxazol-2-yl-1,1-dioxo-2,4-dihydropyrrolo[3,4-b][1,4,5]oxathiazepine-6-carboxamide] | 21 nM | > 25000 nM |  |  |  |
| CC(NCC(F)(F)F)C1COc2c(cn(C)c2C(=O)Nc2ccc(F)c(C#N)c2)S(=O)(=O)N1 (single isomer, unassigned) [Compound 161b, N-(3-cyano-4-fluoro-phenyl)-7-methyl-1,1-dioxo-3-[1-(2,2,2-trifluoroethylamino)ethyl]-3,4-dihydro-2H-pyrrolo[3,4-b][1,4,5]oxathiazepine-6-carboxamide] | > 125 nM | > 25000 nM |  |  |  |
| CC(NCC(F)(F)F)C1COc2c(cn(C)c2C(=O)Nc2ccc(F)c(C#N)c2)S(=O)(=O)N1 (single isomer, unassigned) [Compound 161c, N-(3-cyano-4-fluoro-phenyl)-7-methyl-1,1-dioxo-3-[1-(2,2,2-trifluoroethylamino)ethyl]-3,4-dihydro-2H-pyrrolo[3,4-b][1,4,5]oxathiazepine-6-carboxamide] | 11 nM | > 25000 nM |  |  |  |
| CC(NCC(F)(F)F)C1COc2c(cn(C)c2C(=O)Nc2ccc(F)c(C#N)c2)S(=O)(=O)N1 (single isomer, unassigned) [Compound 161d, N-(3-cyano-4-fluoro-phenyl)-7-methyl-1,1-dioxo-3-[1-(2,2,2-trifluoroethylamino)ethyl]-3,4-dihydro-2H-pyrrolo[3,4-b][1,4,5]oxathiazepine-6-carboxamide] | 11 nM | > 25000 nM |  |  |  |
| Cc1cc(CC2(C)COc3c(cn(C)c3C(=O)Nc3ccc(F)c(C(F)F)c3)S(=O)(=O)N2)n(C)n1 (single isomer, unassigned) [Compound 176b, N-[3-(difluoromethyl)-4-fluoro-phenyl]-3-[(2,5-dimethylpyrazol-3-yl)methyl]-3,7-dimethyl-1,1-dioxo-2,4-dihydropyrrolo[3,4-b][1,4,5]oxathiazepine-6-carboxamide] |  | > 25000 nM |  |  |  |
| C[C@H](O)[C@H]1C=Cc2c(cn(C)c2C(=O)Nc2ccc(F)c(Cl)c2)S(=O)(=O)N1 [Compound 194, (3R)—N-(3-chloro-4-fluoro-phenyl)-3-[(1S)-1-hydroxyethyl]-7-methyl-1,1-dioxo-2,3-dihydropyrrolo[3,4-f]thiazepine-6-carboxamide] |  |  | 6 nM | 211.3 °C | > 25 µM |
| Cn1cc2c(c1C(=O)Nc1ccc(F)c(Cl)c1)OCC(C)(Cc1cccnc1)NS2(=O)=O (stereo not shown) [Compound 211, N-(3-chloro-4-fluoro-phenyl)-3,7-dimethyl-1,1-dioxo-3-(3-pyridylmethyl)-2,4-dihydropyrrolo[3,4-b][1,4,5]oxathiazepine-6-carboxamide] |  |  | 7 nM | 211.5 °C | > 25 µM |
